Drawing on PubChem BioAssay (NCI), this text covers GI50 and TGI for eight compounds.

Structures are written as SMILES. Several values for one entry are separate records, joined by “and”; a condition that tells them apart may be missing. Identical values can stand only once.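 Tested at 5 concentrations; 48 h exposure; 96-well plates; endpoints linearly interpolated, else capped at highest concentration. At the GI50, growth is halved. TGI: total growth inhibition.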 A value given as a limit tells only on which side of the number the result lay.

Some test systems named below: 786-0 renal; HOP-92 NSCLC; IGROV1 ovarian; LOX IMVI melanoma; NCI-H522 lung; OVCAR-4 ovarian; SN12C renal; TK-10 renal.
Experiment in all cases: DTP human tumour cell line panel, 48 h

One may read the GI50 as the concentration that inhibits growth by half. A word on the TGI: it is the concentration at which net growth stops. A high value points to lower sensitivity of the cells. Take `CC(=O)CCc1ccc(OC2OC(COC(=O)c3cc(O)c(O)c(O)c3)C(O)C(O)C2OC(=O)/C=C/c2ccccc2)cc1` (stereo not drawn): the GI50 in the experiment with 786-0 renal is 18.6 µM; in the experiment on HOP-92 NSCLC, 30.4 µM; in the experiment on IGROV1 ovarian, 19 µM; in the experiment on LOX IMVI melanoma, 17.1 µM; in the experiment on NCI-H522 lung, 18.1 µM; in the experiment on OVCAR-4 ovarian it was 23.8 µM. Besides, the GI50 was 20.4 µM in the experiment with SN12C renal and 23.8 µM in the experiment on TK-10 renal. Moreover, the TGI in the experiment with 786-0 renal was 48.2 µM; in the experiment on HOP-92 NSCLC, over 100 µM; in the experiment on IGROV1 ovarian it was 38.6 µM; with LOX IMVI melanoma it was 41.4 µM; in the experiment with NCI-H522 lung, 48 µM; in the experiment with OVCAR-4 ovarian it was 89.7 µM. The total growth inhibition concentration (TGI) with SN12C renal was 44.4 µM; with TK-10 renal, 61.3 µM.
Consider `CC(=O)Nc1ccc(/C=C/C(=O)c2ccccc2)cc1`, for which the GI50 was 23.9 µM with 786-0 renal; 17.9 µM in the experiment on HOP-92 NSCLC; 9.44 µM in the experiment on IGROV1 ovarian; 4.71 µM with LOX IMVI melanoma; 6.85 µM in the experiment on NCI-H522 lung; 17.2 µM in the experiment with OVCAR-4 ovarian. Further, the GI50 is 12.9 µM in the experiment with SN12C renal and 14.6 µM in the experiment on TK-10 renal. In addition, the TGI turned out to be 53.4 µM in the experiment with 786-0 renal; 51.1 µM in the experiment on HOP-92 NSCLC; 30.6 µM in the experiment with IGROV1 ovarian; 18.9 µM in the experiment on LOX IMVI melanoma; 23.2 µM in the experiment with NCI-H522 lung; 45.1 µM in the experiment with OVCAR-4 ovarian. Moreover, the TGI stood at 29.5 µM in the experiment on SN12C renal and 29.8 µM in the experiment with TK-10 renal.
As to `CCCCCCc1cc2cc(-c3nc4ccccc4[nH]3)c(=Nc3ccccc3C)oc2cc1O`, the GI50 is 1.88 µM in the experiment with 786-0 renal; 0.492 µM with HOP-92 NSCLC; 2.07 µM with IGROV1 ovarian; 1.87 µM in the experiment on LOX IMVI melanoma; 2.11 µM in the experiment on NCI-H522 lung; 1.69 µM in the experiment with OVCAR-4 ovarian. The results for the GI50 with SN12C renal and in the experiment on TK-10 renal were 1.73 µM and 2.27 µM, respectively. For the same compound, the TGI in the experiment on 786-0 renal was 3.43 µM; in the experiment on HOP-92 NSCLC it was 5.12 µM; with IGROV1 ovarian, 5.89 µM; in the experiment with LOX IMVI melanoma it was 3.74 µM; in the experiment with NCI-H522 lung, 5.11 µM; in the experiment with OVCAR-4 ovarian, 3.37 µM. Further, the TGI is 4.1 µM in the experiment with SN12C renal and 4.48 µM in the experiment with TK-10 renal.
Take `Cc1ccc2c(c1)c1nc3cc(C)c(C)cc3nc1n2CCN(C)C`: the GI50 was 2.56 µM with 786-0 renal; 1.09 µM in the experiment on HOP-92 NSCLC; 1.93 µM in the experiment on IGROV1 ovarian; 1.45 µM with LOX IMVI melanoma; 1.54 µM with NCI-H522 lung; 3.43 µM in the experiment with OVCAR-4 ovarian. For the same compound, the GI50 in the experiment with SN12C renal is 1.44 µM; in the experiment on TK-10 renal, 2.11 µM. The TGI worked out at 10.8 µM with 786-0 renal; 4.42 µM in the experiment with HOP-92 NSCLC; 4.77 µM in the experiment with IGROV1 ovarian; 4.45 µM with LOX IMVI melanoma; 5.58 µM with NCI-H522 lung; 19.6 µM in the experiment with OVCAR-4 ovarian. For the same compound, the TGI with SN12C renal is 8.77 µM; in the experiment with TK-10 renal, 7.94 µM.
Consider `Cc1ccc(NC(=O)Cc2ccc(/C=C/C(=O)c3ncc[nH]3)cc2)cc1`, for which the GI50 with 786-0 renal is 4.28 µM; in the experiment with HOP-92 NSCLC, 18.5 µM; with IGROV1 ovarian it was 6.47 µM; with LOX IMVI melanoma it was 1.29 µM; in the experiment with NCI-H522 lung, 4.54 µM; in the experiment with OVCAR-4 ovarian it was 10.4 µM. Besides, the GI50 is 5.91 µM in the experiment on SN12C renal and 7.93 µM in the experiment with TK-10 renal. Besides, the TGI is over 25 µM with 786-0 renal; over 25 µM with HOP-92 NSCLC; over 25 µM in the experiment with IGROV1 ovarian; 6.76 µM with LOX IMVI melanoma; 20.5 µM in the experiment with NCI-H522 lung; over 25 µM in the experiment on OVCAR-4 ovarian. Further, the TGI in the experiment on SN12C renal and with TK-10 renal was over 25 µM in each case.
For `S=C(N/N=C(/c1ccccc1)c1ccccn1)N1CCCCC1`, the GI50 with 786-0 renal is under 0.001 µM; in the experiment with HOP-92 NSCLC, 1.16 µM; with IGROV1 ovarian, under 0.001 µM; with NCI-H522 lung, 0.422 µM; in the experiment on OVCAR-4 ovarian, 0.119 µM; in the experiment on SN12C renal, 0.171 µM. Besides, the TGI with 786-0 renal is 1.87 µM and 1.88 µM; in the experiment on HOP-92 NSCLC, 2.27 µM and 2.81 µM; with IGROV1 ovarian, 1.65 µM and 2.56 µM; in the experiment with LOX IMVI melanoma, 1.95 µM and 1.32 µM; in the experiment with NCI-H522 lung, 3.13 µM and 1.71 µM; with OVCAR-4 ovarian it was 3.12 µM and 1.43 µM. In addition, the TGI in the experiment on SN12C renal is 2.18 µM and 2.68 µM; in the experiment with TK-10 renal, 1.97 µM.
Regarding `COc1ccc(-n2cc(-c3cc(OC)c(OC)c(OC)c3)nc2SCc2ccccc2)cc1`, the GI50 in the experiment with 786-0 renal was over 100 µM; in the experiment on HOP-92 NSCLC, 28.9 µM; with IGROV1 ovarian, over 100 µM; with LOX IMVI melanoma, 74.7 µM; with NCI-H522 lung it was 31.5 µM; with OVCAR-4 ovarian, 13.3 µM. Moreover, the GI50 in the experiment with SN12C renal and with TK-10 renal was over 100 µM in each case. The TGI in the experiment on 786-0 renal, in the experiment with HOP-92 NSCLC, in the experiment on IGROV1 ovarian, with LOX IMVI melanoma, in the experiment on NCI-H522 lung and with OVCAR-4 ovarian was over 100 µM in each case. Also, the TGI with SN12C renal and in the experiment with TK-10 renal was over 100 µM each time.
Consider `COc1ccc2c(c1O)C13CCN(C)C(C2)C1CCC1(C3)OCCO1` (stereo not drawn), for which the TGI with 786-0 renal, in the experiment on HOP-92 NSCLC, in the experiment with IGROV1 ovarian, with LOX IMVI melanoma, with NCI-H522 lung and with OVCAR-4 ovarian was over 100 µM in each case. Also, the TGI in the experiment on SN12C renal and in the experiment on TK-10 renal was over 100 µM in each case.
